Where a name gives a salt, the structure may show the parent alone. Read-outs that look alike come from different tables or passages of the source.
What was measured:
WT and α6L9′S mice = test: Locomotor assay in a novel environment; format: in vivo, mouse; details: for Ambulatory activity in a novel environment: 0.5 μmol/kg ip (nicotine 0.08 mg/kg, TC299423 0.09 mg/kg)
Method: Mice were habituated to the experimental room for 2 h prior to the experiment. Horizontal locomotor activity was recorded using an infrared photobeam activity cage system (San Diego Instruments; San Diego, CA, United States). After habituating to the experimental room, mice were placed singly in a novel cage. Ambulations were recorded when two contiguous photobeams were broken in succession, preventing activity from being recorded by most sedentary animals. Ambulation events were measured for 45 min with four 15 s intervals per min. Mice were given a total of two intraperitoneal (ip) injections. First, mice were pre-injected with saline or 1 mg/kg mecamylamine before being placed in the activity cages.

[1] = In vitro metabolism in microsomes; format: in vitro ADME; details: human microsomes
[2] = In vitro metabolism in microsomes; format: in vitro ADME; details: rat microsomes
CYP1A2 = test: Turnover by recombinantly expressed human cytochrome P450 isoforms; format: in vitro ADME; details: 100 pmol/mL enzyme, 37 °C
Method: (§1) S2 Table. In vitro metabolism of TC299423, compared w ith varenicline.
(§2) Human Rat microsomes Turnover by human cytochrome P450 isoforms […]
(§3) The assay mixtures (final incubation volume of 125 μL) in 0.255 M phosphate buffer with 0.575% (w/v) KCl (pH 7.4) contained PiB (1.0 μM), […] a recombinantly expressed cytochrome P450 enzyme preparation (1A2, 2C9, 2C19, 2D6, 3A4, and FMO3) at 100 pmol/mL. After a 10 min preincubation at 37 °C, the reaction was initiated by addition of 2.0 mM NADPH and incubated for 60 min. The reactions were terminated by the addition of two volumes of DMSO. Samples were subsequently centrifuged at 4,000 rpm for 10 min. From the resulting supernatant, 10 μ L was analyzed by liquid chromatography/tandem mass spectrometry (LC-MS/MS). Control experiments were performed by substituting the active enzyme preparation by cell preparations containing no recombinant human CYP. a, Data for clearance are given as μL /min/mg protein. […]
(§4) c, Data for cytochrome P450 turnover and for human flavin- containing monooxygenase 3 (FMO3) are given as percent decline over 60 min.

CYP2C19 = test: as above; format: in vitro ADME; details: 100 pmol/mL enzyme, 37 °C
Method: as §1, §2, §3, §4

CYP2C9 = test: as above; format: in vitro ADME; details: 100 pmol/mL enzyme, 37 °C
Method: as §1, §2, §3, §4

CYP2D6 = test: as above; format: in vitro ADME; details: 100 pmol/mL enzyme, 37 °C
Method: as §1, §2, §3, §4

CYP3A4 = test: as above; format: in vitro ADME; details: 100 pmol/mL enzyme, 37 °C
Method: as §1, §2, §3, §4

WT mice [3] = test: Marble burying assay; format: in vivo, mouse; details: 0.3 mg/kg ip
α3β4 nAChRs = test system: α3β4 nAChRs; design: method as in Carroll et al., 2015; details: ref Carroll et al., 2015; cited from earlier work
α7 nAChRs = test system: α7 nAChRs; design: method as in Carroll et al., 2015; details: ref Carroll et al., 2015; cited from earlier work
α6β2* nAChRs = α6β2* nAChRs (Mus musculus, UniProt Q9ERK7+Q9R0W9); test: biochemical; format: biochemical; details: 10 μM
Sequence of α6β2* nAChRs (Q9R0W9 31-494): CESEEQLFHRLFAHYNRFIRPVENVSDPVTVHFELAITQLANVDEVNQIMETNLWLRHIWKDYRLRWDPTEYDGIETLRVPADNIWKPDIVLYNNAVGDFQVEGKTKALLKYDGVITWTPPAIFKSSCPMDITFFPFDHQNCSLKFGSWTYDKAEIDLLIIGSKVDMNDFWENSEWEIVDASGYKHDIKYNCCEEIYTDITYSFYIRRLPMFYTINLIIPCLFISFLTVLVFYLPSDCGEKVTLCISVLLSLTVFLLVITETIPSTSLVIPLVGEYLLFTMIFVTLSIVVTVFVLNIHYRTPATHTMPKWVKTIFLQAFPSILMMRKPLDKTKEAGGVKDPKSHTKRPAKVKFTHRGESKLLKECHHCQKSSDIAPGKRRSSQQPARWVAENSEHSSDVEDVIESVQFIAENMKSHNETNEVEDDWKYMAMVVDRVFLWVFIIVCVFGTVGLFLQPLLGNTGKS
Sequence of α6β2* nAChRs (Q9ERK7 26-501): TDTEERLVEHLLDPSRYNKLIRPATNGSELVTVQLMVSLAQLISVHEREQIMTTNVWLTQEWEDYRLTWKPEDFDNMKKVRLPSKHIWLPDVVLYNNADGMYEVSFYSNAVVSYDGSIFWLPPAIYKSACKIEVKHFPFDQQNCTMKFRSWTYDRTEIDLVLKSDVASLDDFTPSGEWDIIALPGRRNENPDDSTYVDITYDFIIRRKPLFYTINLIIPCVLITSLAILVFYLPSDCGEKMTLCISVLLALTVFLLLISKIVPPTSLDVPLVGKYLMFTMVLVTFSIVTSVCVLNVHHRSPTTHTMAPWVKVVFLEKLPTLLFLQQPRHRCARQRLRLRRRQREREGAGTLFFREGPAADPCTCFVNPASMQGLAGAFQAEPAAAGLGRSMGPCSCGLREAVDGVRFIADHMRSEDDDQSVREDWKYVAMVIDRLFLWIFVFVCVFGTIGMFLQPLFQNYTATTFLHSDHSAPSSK
Sequence of α6β2* nAChRs (Q8BMN3 31-464 partner): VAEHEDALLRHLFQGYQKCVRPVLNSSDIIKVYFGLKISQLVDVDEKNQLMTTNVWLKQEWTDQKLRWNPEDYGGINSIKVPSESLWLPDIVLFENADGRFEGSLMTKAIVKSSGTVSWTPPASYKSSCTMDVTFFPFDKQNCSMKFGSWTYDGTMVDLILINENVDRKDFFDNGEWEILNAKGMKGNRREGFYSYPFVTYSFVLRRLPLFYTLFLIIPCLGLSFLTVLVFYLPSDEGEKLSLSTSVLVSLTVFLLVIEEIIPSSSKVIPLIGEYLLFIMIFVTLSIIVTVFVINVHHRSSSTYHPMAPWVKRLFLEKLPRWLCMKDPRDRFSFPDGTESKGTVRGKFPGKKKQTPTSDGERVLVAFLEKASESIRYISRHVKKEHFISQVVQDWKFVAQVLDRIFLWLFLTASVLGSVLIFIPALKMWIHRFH
Method: Regions of interest were dissected from fresh mouse brains and homogenized in ice-cold isotonic sucrose (0.32 M), buffered with HEPES (5 mM, pH 7.5). The suspension was centrifuged at 12,000 × g for 20 min. The pellet was re-suspended in the appropriate uptake buffer ([Grady et al., 2001]; [Salminen et al., 2004]; [Marks et al., 2006]) and used immediately.
Superfusion was carried out at 22°C using a buffer containing: NaCl, 128 mM; KCl, 2.4 mM; CaCl2, 3.2 mM; MgSO4, 1.2 mM; KH2PO4, 1.2 mM; HEPES, 25 mM; glucose, 10 mM; ascorbic acid, 1 mM; pargyline, 0.01 mM; 0.1% BSA; nomifensine, 1 μM (to prevent the re-uptake of dopamine); atropine, 1 μM (to prevent muscarinic receptor activation); pH 7.5. Superfusion proceeded at 0.7 mL/min for 10 min before stimulation with agonist for 20 s. Selected aliquots were perfused with α-CtxMII (50 nM) for 3 min immediately before stimulation. This concentration of α-CtxMII was sufficient to inhibit α6β2^∗-nAChRs in the mouse striatum ([Salminen et al., 2004], [2007]). Fractions (∼0.1 mL) were collected into 96-well plates at 10 s intervals for 4 min (starting ∼1 min before stimulation). After adding 0.15 mL of Optiphase SuperMix scintillation cocktail, radioactivity was measured using a 1450 MicroBeta TriLux counter (Perkin Elmer Life Sciences).

α4β2* nAChRs = α4β2* nAChRs (Mus musculus, UniProt O70174+Q9ERK7); test: biochemical; format: biochemical; details: 10 μM
Sequence of α4β2* nAChRs (O70174 31-629): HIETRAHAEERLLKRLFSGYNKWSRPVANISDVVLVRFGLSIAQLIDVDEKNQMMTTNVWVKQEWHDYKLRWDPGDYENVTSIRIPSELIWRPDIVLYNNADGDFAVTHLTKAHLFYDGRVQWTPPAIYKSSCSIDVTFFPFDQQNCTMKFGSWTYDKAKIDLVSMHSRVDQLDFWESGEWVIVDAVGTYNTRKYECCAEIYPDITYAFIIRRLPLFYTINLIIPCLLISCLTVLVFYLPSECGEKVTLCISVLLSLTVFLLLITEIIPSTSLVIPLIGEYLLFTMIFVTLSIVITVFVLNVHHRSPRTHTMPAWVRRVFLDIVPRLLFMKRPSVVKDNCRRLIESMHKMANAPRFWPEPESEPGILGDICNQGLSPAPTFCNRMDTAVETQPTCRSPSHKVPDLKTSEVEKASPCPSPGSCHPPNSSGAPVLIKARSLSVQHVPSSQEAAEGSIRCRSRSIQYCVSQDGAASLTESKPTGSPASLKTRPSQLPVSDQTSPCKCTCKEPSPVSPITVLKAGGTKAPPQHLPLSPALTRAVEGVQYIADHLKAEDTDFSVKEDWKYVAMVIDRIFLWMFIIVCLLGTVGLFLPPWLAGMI
Sequence of α4β2* nAChRs (Q9ERK7 26-501): as the sequence (Q9ERK7 26-501) above
Method: Regions of interest were dissected from fresh mouse brains and homogenized in ice-cold isotonic sucrose (0.32 M), buffered with HEPES (5 mM, pH 7.5). The suspension was centrifuged at 12,000 × g for 20 min.
Superfusion proceeded at 0.7 mL/min for 10 min before stimulation with agonist for 20 s. Selected aliquots were perfused with α-CtxMII (50 nM) for 3 min immediately before stimulation. […] Fractions (∼0.1 mL) were collected into 96-well plates at 10 s intervals for 4 min (starting ∼1 min before stimulation).

WT mice [4] = test: Hot plate assay; format: in vivo, mouse; details: 0.3 mg/kg ip each, 55°C hot plate, p < 0.05
Method: Mice were again habituated to the experimental room for ≥2 h prior to testing. […] This apparatus is a heated metal plate, maintained at 55°C, enclosed by a clear acrylic plastic cylinder (∼10 cm in diameter), within which the mouse is free to move. […] If the mouse urinates during the assay, it is immediately removed from the hot plate. The time that the mouse remains on the hot plate prior to showing signs of discomfort is recorded. Doses were administered using a Latin-square crossover design. A day without testing occurred between each test.

## CNC1(C)C2CCC(C2)C1(C)C (centres unmarked) [mecamylamine]
WT and α6L9′S mice; α6L9′S mice, 1 mg/kg ip pre-injection
  Effect of pre-injection on nicotine- and TC299423-induced increases in ambulation: blocked

## c1cnc2cc3c(cc2n1)[C@@H]1CNC[C@H]3C1 [varenicline, Varenicline tartrate, reference compound]
[1]
  half-life: 43 min
[1]; read-out: Clearance
  microsomal CLint: 39 µL/min/mg
[2]
  half-life: 10 min
[2]; read-out: Clearance
  microsomal CLint: 233 µL/min/mg
CYP1A2
  Turnover by CYP1A2: 7 percent decline over 60 min
CYP2C19
  Turnover by CYP2C19: 0 percent decline over 60 min
CYP2C9
  Turnover by CYP2C9: 0 percent decline over 60 min
CYP2D6
  Turnover by CYP2D6: 39 percent decline over 60 min
CYP3A4
  Turnover by CYP3A4: 50 percent decline over 60 min
WT mice [3]
  Marbles buried compared with saline: significantly fewer marbles

## c1cc2c(cn1)[C@@H]1CC[C@H](CCC2)N1 [PHT, (+)-pyrido[3,4]homotropane]
α3β4 nAChRs
  EC50: 0.43 µM
α7 nAChRs
  EC50: 0.66 µM

## CN1CCC[C@H]1c1cccnc1 [nicotine, (L)-nicotine hydrogen tartrate]
α6β2* nAChRs
  α-CtxMII-sensitive [3H]-dopamine release elicited: 3.63 ± 0.81 units
α4β2* nAChRs
  α-CtxMII-resistant [3H]-dopamine release elicited: 7.78 ± 0.83 units
WT and α6L9′S mice; WT mice
  Ambulatory activity in a novel environment: Neither TC299423 nor nicotine affected WT ambulation
WT and α6L9′S mice; α6L9′S mice
  Ambulatory activity in a novel environment: dramatically increased the ambulatory activity
WT mice [4]
  Antinociceptive effect compared with varenicline: significantly greater than that of varenicline
WT mice [3]
  Marbles buried compared with saline: significantly fewer marbles
WT mice [3]; p < 0.001
  Marbles buried compared with varenicline: fewer marbles
